According to the NIST ThermoML archive (doi:10.1021/je700260f):
± gives the expanded uncertainty stated by the source.

Settings: Liquid, Vibrating tube method

FC(C(F)(F)F)C(F)(F)F [1,1,1,2,3,3,3-heptafluoropropane]
Settings	mass density [kg/m3]
293.14 K, 33440 kPa	1551.5 ± 1.8
293.14 K, 33474 kPa	1551.5 ± 1.8
293.14 K, 33518 kPa	1551.7 ± 1.8
293.14 K, 33554 kPa	1551.8 ± 1.8
293.14 K, 33589 kPa	1552 ± 1.8
293.15 K, 458 kPa	1409.2 ± 1.5
293.15 K, 459 kPa	1409.3 ± 1.5
293.15 K, 461 kPa	1409.2 ± 1.5
293.15 K, 466 kPa	1409.3 ± 1.5
293.15 K, 478 kPa	1409.2 ± 1.5
293.15 K, 498 kPa	1409.3 ± 1.5
293.15 K, 525 kPa	1409.6 ± 1.5
293.15 K, 545 kPa	1409.8 ± 1.5
293.15 K, 569 kPa	1409.9 ± 1.5
293.15 K, 591 kPa	1410.2 ± 1.5
293.15 K, 616 kPa	1410.3 ± 1.5
293.15 K, 647 kPa	1410.5 ± 1.5
293.15 K, 682 kPa	1410.9 ± 1.5
293.15 K, 712 kPa	1411 ± 1.5
293.15 K, 757 kPa	1411.3 ± 1.5
293.15 K, 1646 kPa	1417.7 ± 1.5
293.15 K, 1682 kPa	1417.8 ± 1.5
293.15 K, 1714 kPa	1418.1 ± 1.5
293.15 K, 1855 kPa	1419.1 ± 1.5
293.15 K, 2431 kPa	1422.8 ± 1.5
293.15 K, 2456 kPa	1423.1 ± 1.5
293.15 K, 2481 kPa	1423.1 ± 1.5
293.15 K, 2506 kPa	1423.3 ± 1.5
293.15 K, 2536 kPa	1423.7 ± 1.5
293.15 K, 2566 kPa	1423.7 ± 1.5
293.15 K, 2590 kPa	1424 ± 1.5
293.15 K, 2619 kPa	1424.2 ± 1.5
293.15 K, 2653 kPa	1424.3 ± 1.5
293.15 K, 3787 kPa	1431.6 ± 1.5
293.15 K, 3853 kPa	1432 ± 1.5
293.15 K, 3906 kPa	1432.2 ± 1.5
293.15 K, 3939 kPa	1432.5 ± 1.5
293.15 K, 3976 kPa	1432.7 ± 1.5
293.15 K, 4019 kPa	1432.9 ± 1.5
293.15 K, 4053 kPa	1433.1 ± 1.5
293.15 K, 4077 kPa	1433.4 ± 1.5
293.15 K, 4124 kPa	1433.7 ± 1.5
293.15 K, 4157 kPa	1434 ± 1.5
293.15 K, 4195 kPa	1434 ± 1.5
293.15 K, 4219 kPa	1434.2 ± 1.5
293.15 K, 4259 kPa	1434.4 ± 1.5
293.15 K, 4286 kPa	1434.6 ± 1.5
293.15 K, 4322 kPa	1434.7 ± 1.5
293.15 K, 4367 kPa	1435 ± 1.5
293.15 K, 4394 kPa	1435.3 ± 1.5
293.15 K, 4425 kPa	1435.6 ± 1.5
293.15 K, 4452 kPa	1435.7 ± 1.5
293.15 K, 4488 kPa	1435.9 ± 1.5
293.15 K, 4515 kPa	1435.9 ± 1.5
293.15 K, 4556 kPa	1436.2 ± 1.5
293.15 K, 4587 kPa	1436.4 ± 1.5
293.15 K, 4614 kPa	1436.6 ± 1.5
293.15 K, 4655 kPa	1436.8 ± 1.5
293.15 K, 4687 kPa	1437 ± 1.5
293.15 K, 4727 kPa	1437.2 ± 1.5
293.15 K, 4754 kPa	1437.4 ± 1.5
293.15 K, 4791 kPa	1437.7 ± 1.5
293.15 K, 4815 kPa	1437.8 ± 1.5
293.15 K, 4846 kPa	1438.1 ± 1.5
293.15 K, 5062 kPa	1439.2 ± 1.5
293.15 K, 5095 kPa	1439.5 ± 1.5
293.15 K, 5137 kPa	1439.6 ± 1.5
293.15 K, 5170 kPa	1440 ± 1.5
293.15 K, 5198 kPa	1440 ± 1.5
293.15 K, 5231 kPa	1440.3 ± 1.5
293.15 K, 5259 kPa	1440.4 ± 1.5
293.15 K, 5292 kPa	1440.6 ± 1.5
293.15 K, 5321 kPa	1440.8 ± 1.5
293.15 K, 5364 kPa	1440.9 ± 1.5
293.15 K, 5392 kPa	1441.2 ± 1.5
293.15 K, 5435 kPa	1441.5 ± 1.5
293.15 K, 5472 kPa	1441.7 ± 1.5
293.15 K, 5500 kPa	1441.9 ± 1.5
293.15 K, 5537 kPa	1442.1 ± 1.5
293.15 K, 5566 kPa	1442.2 ± 1.5
293.15 K, 5610 kPa	1442.3 ± 1.5
293.15 K, 5639 kPa	1442.6 ± 1.5
293.15 K, 5678 kPa	1442.8 ± 1.5
293.15 K, 5720 kPa	1443 ± 1.5
293.15 K, 5755 kPa	1443.2 ± 1.5
293.15 K, 5784 kPa	1443.4 ± 1.5
293.15 K, 5818 kPa	1443.6 ± 1.5
293.15 K, 5848 kPa	1443.8 ± 1.5
293.15 K, 5896 kPa	1444 ± 1.5
293.15 K, 5921 kPa	1444.1 ± 1.5
293.15 K, 5955 kPa	1444.4 ± 1.5
293.15 K, 5984 kPa	1444.6 ± 1.5
293.15 K, 6018 kPa	1444.7 ± 1.5
293.15 K, 6043 kPa	1444.8 ± 1.5
293.15 K, 6073 kPa	1445 ± 1.5
293.15 K, 6113 kPa	1445.2 ± 1.5
293.15 K, 6138 kPa	1445.5 ± 1.5
293.15 K, 6174 kPa	1445.6 ± 1.5
293.15 K, 6205 kPa	1445.7 ± 1.5
293.15 K, 6235 kPa	1445.9 ± 1.5
293.15 K, 6260 kPa	1446.1 ± 1.5
293.15 K, 6295 kPa	1446.2 ± 1.5
